# Reference: patent US20260356804A1, “SODIUM CHANNEL BLOCKING COMPOUNDS, DERIVATIVES THEREOF, AND METHODS OF THEIR USE” (LATIGO BIOTHERAPEUTICS, INC., priority 2022, published 2026)
# Like-named read-outs stand apart in the source and are kept apart here.
# Target: T1, human Nav1.8/b3 (Homo sapiens, UniProt Q9Y5Y9)
# T1 construct: expressed in transfected cells; host or cells: CHO
# Test: Compound Profiling Human NaV1.8/β3 Cell Line—SyncroPatch384PE Assay (automated patch clamp, stably transfected CHO cells)
# Format: cell-based
# Settings: Nav1.8/b3 CHO cells
# [1] = P1 (IC50, resting state block), P1 measurement, resting state block, holding potential −120 mV, first set of compounds
# [2] = P2 (IC50, inactivated state block), P2 measurement, inactivated state block, inactivation step −35 mV 10 sec, first set of compounds
# [3] = P1 (IC50, resting state block), P1 measurement, resting state block, holding potential −120 mV, third set of compounds
# [4] = P2 (IC50, inactivated state block), P2 measurement, inactivated state block, inactivation step −35 mV 10 sec, third set of compounds
# [5] = P1 (IC50, resting state block), P1 measurement, resting state block, holding potential −120 mV, second set of compounds
# [6] = P2 (IC50, inactivated state block), P2 measurement, inactivated state block, inactivation step −35 mV 10 sec, second set of compounds
# [7] = P1 (IC50, resting state block), P1 measurement, resting state block, holding potential −120 mV, fourth set of compounds
# [8] = P2 (IC50, inactivated state block), P2 measurement, inactivated state block, inactivation step −35 mV 10 sec, fourth set of compounds
# T1 sequence (Q9Y5Y9 whole entry): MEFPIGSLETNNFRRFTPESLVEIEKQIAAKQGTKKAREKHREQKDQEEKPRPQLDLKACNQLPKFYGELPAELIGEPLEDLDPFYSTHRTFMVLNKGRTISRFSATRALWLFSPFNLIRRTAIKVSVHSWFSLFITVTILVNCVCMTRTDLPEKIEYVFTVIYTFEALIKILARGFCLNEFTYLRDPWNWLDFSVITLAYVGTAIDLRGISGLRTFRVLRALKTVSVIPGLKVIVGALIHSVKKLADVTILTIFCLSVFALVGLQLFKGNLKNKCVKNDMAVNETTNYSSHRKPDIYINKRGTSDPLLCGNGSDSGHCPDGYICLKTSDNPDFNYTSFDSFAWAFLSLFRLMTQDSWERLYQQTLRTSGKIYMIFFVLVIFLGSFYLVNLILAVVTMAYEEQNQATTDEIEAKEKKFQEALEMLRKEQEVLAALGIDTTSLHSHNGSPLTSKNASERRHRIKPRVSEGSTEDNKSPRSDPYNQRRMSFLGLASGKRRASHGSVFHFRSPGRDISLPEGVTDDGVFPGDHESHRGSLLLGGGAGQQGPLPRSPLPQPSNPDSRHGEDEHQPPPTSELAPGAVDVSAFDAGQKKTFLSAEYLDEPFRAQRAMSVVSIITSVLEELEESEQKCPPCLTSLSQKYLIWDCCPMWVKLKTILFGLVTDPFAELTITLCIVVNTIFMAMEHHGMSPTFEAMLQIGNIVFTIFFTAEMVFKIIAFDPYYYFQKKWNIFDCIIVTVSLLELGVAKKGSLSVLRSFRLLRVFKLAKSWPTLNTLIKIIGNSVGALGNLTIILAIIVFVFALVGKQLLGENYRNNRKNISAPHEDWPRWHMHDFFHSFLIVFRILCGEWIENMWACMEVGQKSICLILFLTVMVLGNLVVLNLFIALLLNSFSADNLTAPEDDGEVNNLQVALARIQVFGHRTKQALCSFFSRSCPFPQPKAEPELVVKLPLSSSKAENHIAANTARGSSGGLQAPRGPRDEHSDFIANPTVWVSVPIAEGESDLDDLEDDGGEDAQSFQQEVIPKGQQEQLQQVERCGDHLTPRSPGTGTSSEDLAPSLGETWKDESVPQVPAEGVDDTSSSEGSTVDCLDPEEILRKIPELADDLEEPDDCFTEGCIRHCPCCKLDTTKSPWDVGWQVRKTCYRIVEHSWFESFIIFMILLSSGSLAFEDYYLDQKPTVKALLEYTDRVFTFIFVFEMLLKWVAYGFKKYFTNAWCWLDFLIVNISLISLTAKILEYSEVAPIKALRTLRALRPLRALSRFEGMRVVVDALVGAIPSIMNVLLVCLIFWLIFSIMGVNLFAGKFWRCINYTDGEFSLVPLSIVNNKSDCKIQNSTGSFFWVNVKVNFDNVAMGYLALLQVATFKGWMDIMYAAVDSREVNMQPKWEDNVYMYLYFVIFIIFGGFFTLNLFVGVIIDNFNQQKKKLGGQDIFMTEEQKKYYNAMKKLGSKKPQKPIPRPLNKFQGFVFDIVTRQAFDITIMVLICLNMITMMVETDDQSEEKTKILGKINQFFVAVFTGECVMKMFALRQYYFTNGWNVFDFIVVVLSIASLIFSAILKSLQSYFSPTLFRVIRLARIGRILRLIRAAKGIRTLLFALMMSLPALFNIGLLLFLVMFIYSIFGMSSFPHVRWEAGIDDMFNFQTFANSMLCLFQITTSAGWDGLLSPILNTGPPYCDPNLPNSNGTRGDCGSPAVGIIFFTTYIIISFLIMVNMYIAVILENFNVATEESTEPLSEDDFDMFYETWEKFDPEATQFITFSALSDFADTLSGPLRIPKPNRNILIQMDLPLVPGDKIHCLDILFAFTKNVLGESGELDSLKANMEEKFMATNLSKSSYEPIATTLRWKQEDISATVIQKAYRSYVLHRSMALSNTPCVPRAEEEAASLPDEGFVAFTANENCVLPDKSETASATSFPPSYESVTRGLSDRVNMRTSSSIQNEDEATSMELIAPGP
# T1 sequence (Q9NY72 23-215 partner): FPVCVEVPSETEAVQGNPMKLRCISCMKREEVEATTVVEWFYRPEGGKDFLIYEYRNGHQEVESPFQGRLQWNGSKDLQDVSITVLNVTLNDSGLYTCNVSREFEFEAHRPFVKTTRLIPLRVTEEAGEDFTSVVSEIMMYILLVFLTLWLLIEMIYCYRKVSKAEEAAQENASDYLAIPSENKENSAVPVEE
SMILES,IC50 [1] [nM],IC50 [2] [nM],IC50 [3] [nM],IC50 [4] [nM],also measured
C[S@@](=N)(=O)c1cc(NC(=O)c2c(Oc3ccc(OC(F)(F)F)cc3)cc(C(F)(F)F)c(Cl)c2F)ccn1 [Example 45A],< 5,< 5,,,
"COc1c(Oc2cc(C(F)(F)F)nnc2C(=O)Nc2cccc(S(C)(=N)=O)c2)ccc(F)c1F (stereo not drawn) [Example 31C, 4-(3,4-difluoro-2-methoxyphenoxy)-N-(3-(S-methylsulfonimidoyl)phenyl)-6-(trifluoromethyl)pyridazine-3-carboxamide]",,,100 to 200,100 to 200,
"Cc1nc(F)ccc1Oc1cc(C(F)(F)F)c(Cl)cc1C(=O)Nc1cccc([S@@](C)(=O)=NC(=O)CO)c1 [Example 2B, (R)-5-chloro-2-((6-fluoro-2-methylpyridin-3-yl)oxy)-N-(3-(N-(2-hydroxyacetyl)-S-methylsulfonimidoyl)phenyl)-4-(trifluoromethyl)benzamide]",,,,,IC50 [5]: < 5 nM; IC50 [6]: < 5 nM
"Cc1nc(F)ccc1Oc1cc(C(F)(F)F)c(Cl)c(C)c1C(=O)Nc1cccc([S@](C)(=N)=O)c1 [Example 10A, (R)-3-chloro-6-((6-fluoro-2-methylpyridin-3-yl)oxy)-2-methyl-N-(3-(S-methylsulfonimidoyl)phenyl)-4-(trifluoromethyl)benzamide]",< 5,< 5,,,
"Cc1nc(F)ccc1Oc1ncc(C(F)(F)F)c(C)c1C(=O)Nc1cccc([S@@](C)(=O)=NC(=O)C2(N)CC2)c1 [Example 5D, (R)—N-(3-(N-(1-aminocyclopropane-1-carbonyl)-S-methylsulfonimidoyl)phenyl)-2-((6-fluoro-2-methylpyridin-3-yl)oxy)-4-methyl-5-(trifluoromethyl)nicotinamide]",,,,,IC50 [7]: < 5 nM; IC50 [8]: < 5 nM
Cc1nc(F)ccc1Oc1cc(C2CC2)c(C(F)(F)F)c(C)c1C(=O)Nc1ccnc([S@@](C)(=N)=O)c1 [Example 38A],< 5,< 5,,,
C[S@@](=N)(=O)c1cccc(NC(=O)c2c(Oc3ccc(OC(F)(F)F)cc3)cc(C(F)(F)F)c(Cl)c2Oc2ccc(OC(F)(F)F)cc2)c1 [Example 46A],100 to 200,100 to 200,,,
"Cc1nc(F)ccc1Oc1ccc(C(F)(F)F)c(F)c1C(=O)Nc1cccc([S@](C)(=N)=O)c1 [Example 4A, (R)-2-fluoro-6-((6-fluoro-2-methylpyridin-3-yl)oxy)-N-(3-(S-methylsulfonimidoyl)phenyl)-3-(trifluoromethyl)benzamide]",< 5,< 5,,,
Cc1nc(F)ccc1Oc1nc(C2CC2)c(C(F)(F)F)c(C)c1C(=O)Nc1ccnc([S@@](C)(=N)=O)c1 [Example 105C],,,< 5,< 5,
Cc1nc(F)ccc1Oc1ncc(C2CCC2)c(C)c1C(=O)Nc1cccc([S@](C)(=N)=O)c1 [Example 99C],,,5 to 50,5 to 50,
"COc1cc(C#N)ccc1Oc1ncc(-c2ccc(C)cn2)c(C)c1C(=O)Nc1cccc([S@](C)(=N)=O)c1 [Example 22C, (R)-6-(4-cyano-2-methoxyphenoxy)-4,5-dimethyl-N-(3-(S-methylsulfonimidoyl)phenyl)-[2,3-bipyridine]-5-carboxamide]",,,,,"IC50 (P1 measurement, resting state block, holding potential −120 mV, third set of compounds, read-out: P1 (IC50, resting state block)): 50 to 100 nM; IC50 (P2 measurement, inactivated state block, inactivation step −35 mV 10 sec, third set of compounds, read-out: P2 (IC50, inactivated state block)): 50 to 100 nM"
Cc1nc(F)ccc1Oc1cc(C(F)(F)F)c(Cl)c(C)c1C(=O)NC12CC(C(N)=O)(C1)C2 [Example 53A],> 200,> 200,,,
"Cc1nc(F)ccc1Oc1ncc(C(F)(F)F)c(C)c1C(=O)Nc1cccc([S@@](C)(=O)=NC(=O)[C@@H]2CCCN2)c1 [Example 22D, N-(3-((R)—N-(L-prolyl)-S-methylsulfonimidoyl)phenyl)-2-((6-fluoro-2-methylpyridin-3-yl)oxy)-4-methyl-5-(trifluoromethyl)nicotinamide]",,,,,IC50 [7]: < 5 nM; IC50 [8]: < 5 nM
"COCC(=O)N=[S@](C)(=O)c1cccc(NC(=O)c2c(Oc3ccc(F)nc3C)ncc(C(F)(F)F)c2C)c1 [Example 8D, (R)-2-((6-fluoro-2-methylpyridin-3-yl)oxy)-N-(3-(N-(2-methoxyacetyl)-S-methylsulfonimidoyl)phenyl)-4-methyl-5-(trifluoromethyl)nicotinamide]",,,,,IC50 [7]: < 5 nM; IC50 [8]: < 5 nM
Cc1nc(F)ccc1Oc1cc(C2CC2)c(C(F)(F)F)c(C)c1C(=O)Nc1ccnc([S@](C)(=N)=O)c1 [Example 39A],< 5,< 5,,,
C[S@@](=N)(=O)c1cc(NC(=O)c2c(F)cc(C(F)(F)F)cc2Oc2ccc(OC(F)(F)F)cc2)ccn1 [Example 44A],< 5,< 5,,,
Cc1nc(F)ccc1Oc1cc(C(F)(F)F)c(Cl)cc1C(=O)Nc1ccc(C(N)=O)nc1 [Example 64A],5 to 50,5 to 50,,,

SMILES,IC50 [1] [nM],IC50 [2] [nM],IC50 [3] [nM],IC50 [4] [nM],also measured
Cc1nc(F)ccc1Oc1cc(C2CC2)c(C(F)(F)F)c(C)c1C(=O)Nc1cccc([S@@](C)(=N)=O)c1 [Example 42A],< 5,< 5,,,
"COc1cc(C#N)ccc1Oc1ncc(Cl)c(C)c1C(=O)Nc1cccc([S@](C)(=N)=O)c1 [Example 26C, (R)-5-chloro-2-(4-cyano-2-methoxyphenoxy)-4-methyl-N-(3-(S-methylsulfonimidoyl)phenyl)nicotinamide]",,,5 to 50,5 to 50,
"Cc1nc(F)ccc1Oc1ncc(C(F)(F)F)c(C)c1C(=O)Nc1cccc([S@@](C)(=O)=NC(=O)[C@H]2CCCO2)c1 [Example 14D, 2-((6-fluoro-2-methylpyridin-3-yl)oxy)-4-methyl-N-(3-((R)—S-methyl-N—((R)-tetrahydrofuran-2-carbonyl)sulfonimidoyl)phenyl)-5-(trifluoromethyl)nicotinamide]",,,,,IC50 [7]: < 5 nM; IC50 [8]: < 5 nM
"Cc1nc(F)ccc1Oc1ncc(C(F)F)c(C)c1C(=O)Nc1ccnc(S(C)(=N)=O)c1 (stereo not drawn) [Example 48C, 5-(difluoromethyl)-2-((6-fluoro-2-methylpyridin-3-yl)oxy)-4-methyl-N-(2-(S-methylsulfonimidoyl)pyridin-4-yl)nicotinamide]",,,> 200,> 200,
Cc1nc(F)ccc1Oc1nc(C(F)(F)F)c(Cl)c(C)c1C(=O)Nc1ccc(F)c([S@](C)(=N)=O)c1 [Example 95C],,,< 5,< 5,
CNCC(=O)N=[S@](C)(=O)c1cccc(NC(=O)c2cc(Cl)c(C(F)(F)F)cc2Oc2ccc(F)nc2C)c1 [Example 29B],,,,,IC50 [5]: < 5 nM; IC50 [6]: < 5 nM
"COc1cc(C#N)ccc1Oc1ncc(-c2ccc(C(F)F)cc2)c(C)c1C(=O)Nc1ccnc([S@](C)(=N)=O)c1 [Example 17C, (R)-2-(4-cyano-2-methoxyphenoxy)-5-(4-(difluoromethyl)phenyl)-4-methyl-N-(2-(S-methylsulfonimidoyl)pyridin-4-yl)nicotinamide]",,,> 200,> 200,
"Cc1nc(F)ccc1Oc1ncc(C(F)(F)F)c(C)c1C(=O)Nc1cccc(S(C)(=N)=N)c1 [Example 40C, ((3-(2-((6-fluoro-2-methylpyridin-3-yl)oxy)-4-methyl-5-(trifluoromethyl)nicotinamido)phenyl)(methyl)-l6-sulfanediylidene)diamine]",,,< 5,< 5,
Cc1nc(F)ccc1Oc1cc(C(F)(F)F)c(Cl)c(F)c1C(=O)Nc1ccnc([S@](C)(=N)=O)c1 [Example 41A],< 5,< 5,,,
"Cc1nc(F)ccc1Oc1cc(C(F)(F)F)c(Cl)cc1C(=O)Nc1cccc([S@@](C)(=O)=NC(=O)[C@@H](C)O)c1 [Example 1B, 5-chloro-2-((6-fluoro-2-methylpyridin-3-yl)oxy)-N-(3-((R)—N—((R)-2-hydroxypropanoyl)-S-methylsulfonimidoyl)phenyl)-4-(trifluoromethyl)benzamide]",,,,,IC50 [5]: < 5 nM; IC50 [6]: < 5 nM
"COc1cc(C#N)ccc1Oc1ncc(C(F)(F)F)c(C)c1C(=O)Nc1cccc(S(N)(=O)=O)c1 [Example 28C, 2-(4-cyano-2-methoxyphenoxy)-4-methyl-N-(3-sulfamoylphenyl)-5-(trifluoromethyl)nicotinamide]",,,< 5,< 5,
Cc1nc(F)ccc1Oc1cc(C(F)(F)F)c(Cl)cc1C(=O)Nc1ccc(F)c([S@@](C)(=N)=O)c1 [Example 70A],< 5,< 5,,,
"Cc1nc(F)ccc1Oc1cc(C(F)(F)F)ccc1C(=O)Nc1cccc([S@@](C)(=O)=NC(=O)[C@@H](C)O)c1 [Example 13B, 2-((6-fluoro-2-methylpyridin-3-yl)oxy)-N-(3-((R)—N—((R)-2-hydroxypropanoyl)-S-methylsulfonimidoyl)phenyl)-4-(trifluoromethyl)benzamide]",,,,,IC50 [5]: 5 to 50 nM; IC50 [6]: 5 to 50 nM
"Cc1nc(F)ccc1Oc1nnc(C(F)(F)F)c(C)c1C(=O)Nc1cccc([S@@](C)(=O)=NC(=O)[C@@H]2CCCN2)c1 [Example 26D, N-(3-((R)—N-(L-prolyl)-S-methylsulfonimidoyl)phenyl)-3-((6-fluoro-2-methylpyridin-3-yl)oxy)-5-methyl-6-(trifluoromethyl)pyridazine-4-carboxamide]",,,,,IC50 [7]: < 5 nM; IC50 [8]: < 5 nM
Cc1nc(F)ccc1Oc1ncc(I)c(C)c1C(=O)Nc1cccc([S@](C)(=N)=O)c1 [Example 122C],,,5 to 50,5 to 50,
Cc1nc(F)ccc1Oc1nc(C2CC2)c(C(F)(F)F)c(C)c1C(=O)Nc1ccnc([S@](C)(=N)=O)c1 [Example 106C],,,< 5,< 5,
